Active and inactive are the calls of the source. The rule behind the calls is not given here.
How the values were obtained:
Rattus norvegicus [1] = test: Antiulcer activity in po dosed Sprague-Dawley rat assessed as dose required to inhibition of cold-restraint induced gastric erosions after 3 hrs; assay type: functional, Stomach
Rattus norvegicus [2] = test: Antisecretory activity in four-hours pylorus-ligated Sprague-Dawley rat assessed as inhibition of basal gastric secretion at 10 mg/kg administered intraduodenally; assay type: functional, organism-based; parameters: dose 10 mg/kg; conditions: Stomach
Rattus norvegicus [3] = test: Antisecretory activity in four-hours pylorus-ligated Sprague-Dawley rat assessed as inhibition of basal gastric secretion at 30 mg/kg administered intraduodenally; assay type: functional; conditions: Stomach; for inhibition in vivo at 30 mg/kg: 4 h, route intraduodenal

Structure (SMILES) | Effective oral dose inhibiting gastric erosions (Rattus norvegicus [1]) [mg/kg] | inhibition (Rattus norvegicus [2]) | inhibition in vivo at 30 mg/kg (Rattus norvegicus [3]) [%] | inhibition (Rattus norvegicus [3])
Cc1ccc2c(n1)C(C(N)=S)CCC2 (centres undefined) | 10 | Active |  | 
CCCCNC(=S)C1CCCc2cc(C)cnc21.Cl (centres undefined) | 100 |  | < 70 | 
Cc1cc2c([n+]([O-])c1)C(C#N)CCC2 (centres undefined) | 100 |  |  | inactive
Cc1cnc2c(c1)CCCC2C(N)=O (centres undefined) | 100 |  |  | 
CNC(=S)C1(C(=S)NC)CCc2cc(C)cnc21 | 100 |  |  | inactive
Cc1cnc2c(c1)CCCC2C#N.Cl (centres undefined) | 100 |  | < 70 | 
CNC(=S)C1CCCc2cc3ccccc3nc21 (centres undefined) |  |  | < 10 | 
Cc1cnc2c(c1C)CCCC2C(N)=S (centres undefined) |  |  | > 70 | 
Cl.NC(=S)C1CCCc2cccnc21 (centres undefined) | 3 | Active |  | 
Cc1cnc2c(c1)CCCC2C(=S)N(C)C (centres undefined) | 100 |  |  | inactive
CNC(=S)C1CCCc2cccnc21.Cl (centres undefined) | 3 | Active |  | 
CC1CNC2C(CCCC2C(N)=S)C1 (centres undefined) |  |  |  | inactive
NC(=S)C1CCCc2cc3c(nc21)CCCCC3 (centres undefined) | 30 |  | < 70 | 
CCCCc1ccc2c(n1)C(C(N)=S)CCC2 (centres undefined) | 100 |  | < 70 | 
NC(=S)Cc1ccc2c(n1)CCCC2 | 30 |  |  | inactive
N#CC1CCCc2ccc(-c3ccccc3)nc21 (centres undefined) | 100 |  |  | inactive
Cc1cnc2c(c1)CCCC2C1=NCCCN1.Cl (centres undefined) | 100 |  |  | inactive
NC(=S)C1CCCc2c1ncc1c2CCCC1 (centres undefined) | 30 |  | < 70 | 
CCc1ccc2c(n1)C(C(N)=S)CCC2 (centres undefined) |  |  | < 70 | 
Cc1cc(-c2ccccc2)c2c(n1)C(C(N)=S)CCC2 (centres undefined) |  |  |  | inactive
NC(=S)C1CCCc2cc3c(nc21)CCCC3 (centres undefined) | 100 |  | < 70 | 
Cc1cnc2c(c1)CCCC2C(=S)NCCCc1ccccc1.Cl (centres undefined) | 100 |  |  | inactive
N#CC1CCCc2cccnc21 (centres undefined) |  |  | < 70 | 
CC(C)(C)c1ccc2c(n1)C(C(N)=S)CCC2 (centres undefined) | 30 |  |  | inactive
NC(=O)C1CCCc2ccc(-c3ccccc3)nc21 (centres undefined) | 100 |  |  | 
Cc1cnc2c(c1)CCCC2C(=S)NCc1ccccc1.Cl (centres undefined) | 100 |  |  | inactive

Structure (SMILES) | Effective oral dose inhibiting gastric erosions (Rattus norvegicus [1]) [mg/kg] | inhibition (Rattus norvegicus [2]) | inhibition in vivo at 30 mg/kg (Rattus norvegicus [3]) [%] | inhibition (Rattus norvegicus [3])
Cl.NC(=S)C1CCCc2cc3c(nc21)CCC3 (centres undefined) | 100 |  | < 70 | 
Cc1cnc2c(c1)CCCC2C(=S)Nc1ccccc1 (centres undefined) | 100 |  |  | inactive
NC(=S)c1cccc2cccnc12 |  | Active |  | 
Cc1cnc2c(c1)CC(C)CC2C(N)=S.Cl (centres undefined) | 10 |  | > 70 | 
Cc1cc2c([n+]([O-])c1)C(C(N)=S)CCC2 (centres undefined) | 100 |  |  | inactive
Cc1cnc2c(c1)CCC(C)(C)C2C(N)=S.Cl (centres undefined) | 100 |  |  | inactive
CNC(=S)C1CCCc2c1ncc1c2CCCC1 (centres undefined) | 100 |  |  | inactive
Cc1cnc2c(c1)CCCC2C1=NCCN1.Cl (centres undefined) | 100 |  |  | inactive
CNC(=S)C1(OC)CCCc2cc(C)cnc21 (centres undefined) |  |  |  | inactive
Cl.NC(=S)C1CCc2cc3c(nc21)CCC3 (centres undefined) | 100 |  | < 70 | 
Cl.NC(=S)C1CCCCc2cc3c(nc21)CCCCC3 (centres undefined) | 100 |  |  | inactive
Cc1cnc2c(c1)CCCC2(C)C(N)=S.Cl (centres undefined) | 100 |  |  | inactive
Cl.NC(=S)C1CCCc2cc3ccccc3nc21 (centres undefined) | 30 |  |  | inactive
CNC(=S)C1(C(=S)NC)CCCc2cccnc21.Cl | 100 |  |  | inactive
Cc1ccnc2c1CCCC2C(N)=S.Cl (centres undefined) | 30 | Active |  | 
NC(=S)c1cccc2c1NCCC2 |  |  |  | inactive
Cc1cnc2c(c1)CCCC2c1nc(C)cs1.Cl (centres undefined) | 100 |  |  | inactive
Cc1cnc2c(c1)C(C)CCC2C(N)=S.Cl (centres undefined) | 30 | Active |  | 
CC(=O)OC1(C(N)=S)CCCc2cc(C)cnc21 (centres undefined) |  |  |  | inactive
Cc1cc(C)c2c(n1)C(C(N)=S)CCC2 (centres undefined) |  |  | < 70 | 
CNC(=S)C1CCCc2cc(C)cnc21 (centres undefined) | 30 |  | < 10 | 
CNC(=S)C1(C(=S)NC)CCc2cc3ccccc3nc21.Cl | 100 |  |  | inactive
Cc1cnc2c(c1)CCC2C(N)=S.Cl (centres undefined) | 30 |  |  | inactive
Cc1cnc2c(c1)CCCC2C(N)=S.Cl (centres undefined) [TIQUINAMIDE HYDROCHLORIDE] | 10 | Active |  | 
Cl.NC(=S)C1CCCc2ccc(-c3ccccc3)nc21 (centres undefined) | 30 |  |  | inactive

Source: ChEMBL document CHEMBL3244349, “5,6,7,8-Tetrahydroguinolines. 4. Antiulcer and antisecretory activity of 5,6,7,8-tetrahydroquinolinenitriles and -thioamides” (1977)
